A short description of this data set: equilibrium dialysis test (slow release of minoxidil ion through a dialysis membrane). In kind it is physicochemical. As to conditions: 10 ml solution containing 0.45 mmoles, pH 4.4, equilibrated through a dialytic barrier with 130 ml of water at pH 4.4. The source says: A direct experimental evidence of the slow-release mechanism, characterizing the minoxidil-polyanion salts, is obtained by dialysis equilibrium tests, as shown in the enclosed Figure. […] If the dialysis solution is substituted, the equilibrium is recovered after dissociation of a further amount of salt. This process mimicks "in vitro" the drug's slow release action at the skin level, characterized by a constant and uniform absorption of the active principle, whose availability in time is provided by the continuous dissociation of the salt.
When the equilibrium conditions are reached at the points marked by the arrows, the equilibrium solution is removed, substituting it with 130 ml of water, till reestablishment of the new equilibrium conditions.
A general note: Equilibrium dialysis compares concentrations on both sides of a semipermeable membrane.

The text below walks through data of patent EP0211268B1, “Slow-release topical formulations” (Zappia, Vincenzo, priority 1985, dated 1987).

With `Cl.Nc1cc(N2CCCCC2)nc(N)[n+]1[O-]` [minoxidil chloride], the “minoxidil found outside the dialysis membrane at equilibrium” value is reported as “about 90%”.
